Laboratory results reported in US20120195911A1, “Method of treatment of cancer patients” (priority 2011, published 2012).

Assays:
[1] = tested on: EBV-associated nasopharyngeal carcinomas; details: nasopharyngeal carcinomas in athymus mice; cited from earlier work
[2] = tested on: adenocarcinomas with various localizations; test: Comparative study, all cancer patients of the experimental group together; type: in vivo, human; details: for long-term remission of the illness: fewer than 3 courses of seven days
Procedure: All the patients belonged to the second clinical group with stage 3 illness. In the capacity of a control group (Control), the following were used: 10 cervical cancer patients, 12 stomach cancer patients, and 10 mammary gland cancer patients from clinical group 2 with stage 3 illnesses. In the control group the patients were treated without the use of Valacyclovir and Acyclovir. As may be seen in the table, the remission periods due to the use of Valacyclovir (Acyclovir) before standard methods of treatment or in combination with chemotherapy doubled for mammary gland cancer and quintupled for stomach cancer. In the majority of the patients (more than 72%), metastasis was not seen for the entire period of observation (3 years). […] The use of the antiviral drug is not useful for a longer period, as the remission period begins for the patient and the drug is ineffective.

[3] = tested on: cytomegalovirus (CMV); test: CMV antigens in patient's lymphocytes (fluorescing antibody method / indirect immunofluorescence reaction); type: in vivo, human
Procedure: (§1) […] Before treatment with Acyclovir, the antigen to cytomegalovirus (CMV) was found in 85% of the patient's lymphocytes through the fluorescing antibody method (FAM) and therapy was administered with the use of Valacyclovir. 1 g of medication was given 3 times a day for 7 days in a row in three courses in intervals of seven days each. Then the patient underwent a radical mastectomy. Postoperative chemotherapy was not used. […] CMV antigens were not found in the lymphocytes.
(§2) […] CMV antigens were found using the FAM in 90% of the lymphocytes before treatment with Valacyclovir. The patient then underwent Valacyclovir therapy. 2 g of medication was administered 4 times a day for 7 days in a row in three courses in intervals of seven days each. Then a subtotal resection was performed on the patient's stomach. Postoperative chemotherapy was not used. […] Laboratory study of the patient's lymphocytes every year found CMV antigens in 10-15% of the cells. At the end of the first and second year, the patient received another course of Valacyclovir.
(§3) […] CMV was found with the FEM in 80% of lymphocytes before treatment with Valacyclovir. The patient then underwent Valacyclovir therapy. 2 g of medication was administered 4 times a day for 7 days in a row in three courses in intervals of seven days each. Then the patient underwent a standard schedule of radiological treatment. Chemotherapy was not used. […] Laboratory study of the patient's lymphocytes every year found CMV antigens, but only in 20-30% of the cells. The patient underwent two more courses of treatment with Valacyclovir according to the schedule above once per year.
(§4) […] Valacyclovir was administered as treatment. CMV antigens were found in 95% of the patient's lymphocytes before treatment with Valacyclovir. 2 g of medication was administered orally 4 times a day for 7 days in a row in three courses in intervals of seven days each in parallel with CVPM chemotherapy. Other treatment methods were not used. […] Laboratory study of the patient's lymphocytes every year found CMV antigens in 10-15% of the cells. The patient underwent two more courses of treatment with Valacyclovir in combination with chemotherapy once per year.
(§5) EBV antigens were found 80% of the lymphocytes and CMV was found in 90% of the lymphocytes using the FAM in before treatment with Valacyclovir. The patient then underwent combination therapy with antiviral drugs: immunoglobulin to treat the EBV at a dosage of 13 ml of a 10% solution immediately (7 ml per injection) intravenously once a week three times; immunoglobulin to treat the CMV at a dosage of 13 ml of a 10% solution immediately (7 ml per injection) intramuscularly once a week three times; two 1 g tablets of Valacyclovir 3 times per day in 3 courses of 7 days each; Laferobion 3 million IU once per day daily for seven days in a row. Then a subtotal resection was performed on the patient's stomach. Postoperative chemotherapy was not used. […] Laboratory study of the patient's lymphocytes every year found CMV and EBV antigens in 10-15% of the cells.

[4] = tested on: Mammary Gland Cancer; test: Comparative study of treatment with Valacyclovir before standard treatment, mammary gland cancer patients; type: in vivo, human; details: Valacyclovir (Acyclovir) before standard treatment or with chemotherapy
Procedure: (§6) All the patients belonged to the second clinical group with stage 3 illness. In the capacity of a control group (Control), the following were used: 10 cervical cancer patients, 12 stomach cancer patients, and 10 mammary gland cancer patients from clinical group 2 with stage 3 illnesses. In the control group the patients were treated without the use of Valacyclovir and Acyclovir. As may be seen in the table, the remission periods due to the use of Valacyclovir (Acyclovir) before standard methods of treatment or in combination with chemotherapy doubled for mammary gland cancer and quintupled for stomach cancer. In the majority of the patients (more than 72%), metastasis was not seen for the entire period of observation (3 years).

[5] = tested on: T3N1M0 stomach cancer; test: Case reports: preoperative Valacyclovir in stomach cancer; type: in vivo, human; details: then subtotal resection
Procedure: as §2
EBV antigens were found 80% of the lymphocytes and CMV was found in 90% of the lymphocytes using the FAM in before treatment with Valacyclovir. The patient then underwent combination therapy with antiviral drugs: immunoglobulin to treat the EBV at a dosage of 13 ml of a 10% solution immediately (7 ml per injection) intravenously once a week three times; immunoglobulin to treat the CMV at a dosage of 13 ml of a 10% solution immediately (7 ml per injection) intramuscularly once a week three times; two 1 g tablets of Valacyclovir 3 times per day in 3 courses of 7 days each; Laferobion 3 million IU once per day daily for seven days in a row. Then a subtotal resection was performed on the patient's stomach. Postoperative chemotherapy was not used. […]

[6] = tested on: T4N1M0 cervical cancer; test: Case report: Valacyclovir before radiation therapy for cervical cancer; type: in vivo, human; details: Patient S.
Procedure: as §3

[7] = tested on: T2N1M0 mammary gland cancer; test: Case report: preoperational Valacyclovir in mammary gland cancer; type: in vivo, human; details: Patient L., 1 g 3 times a day, 7 days, three courses, then radical mastectomy; three-year period
Procedure: as §1

[8] = tested on: Stomach Cancer; test: Comparative study of treatment with Valacyclovir before standard treatment, stomach cancer patients; type: in vivo, human; details: Valacyclovir (Acyclovir) before standard treatment or with chemotherapy
Procedure: as §6

[9] = tested on: T4N1M0 prostate cancer; test: Case report: Valacyclovir with chemotherapy in prostate cancer; type: in vivo, human; details: Patient D., 2 g orally 4 times a day, 7 days, three courses, in parallel with CVPM chemotherapy; three-year period
Procedure: as §4

[10] = tested on: EBV; test: EBV antigens in patient's lymphocytes (fluorescing antibody method); type: in vivo, human; details: Patient (stomach cancer), combination with immunoglobulins and Laferobion; 80% before treatment
Procedure: as §5

[11] = tested on: neuroblastoma cells infected by HCMV; details: long-term cultured HCMV-infected neuroblastoma cells resistant to cysplatin and etoposide; virus reproduction blocked; cited from earlier work

Nc1ccn(C[C@@H](CO)OCP(=O)(O)O)c(=O)n1 [Cidofovir, (S)-1-(3-hydroxy-2-phpsphonyl-methoxypropyl) cytosine]
apoptosis in EBV-transformed epithelial cells [1]: causes a quick induction of apoptosis

CC(C)[C@H](N)C(=O)OCCOCn1cnc2c(=O)[nH]c(N)nc21 [Valacyclovir]
patients in whom metastasis was not seen for the entire period of observation ([2]; experimental group, observation 3 years): more than 72%
long-term remission of the illness ([2]; less than 1 g 3 times a day perorally): does not provide long-term remission
CMV antigens in lymphocytes after treatment ([3]; Patient (stomach cancer), combination with immunoglobulins and Laferobion, 90% before treatment): 10-15%
CMV antigens in lymphocytes after treatment ([3]; Patient B. (stomach cancer), yearly study, 90% of lymphocytes before treatment): 10-15%
CMV antigens in lymphocytes after treatment ([3]; Patient D. (prostate cancer), yearly study, 95% of lymphocytes before treatment): 10-15%
CMV antigens in lymphocytes after treatment ([3]; Patient L., yearly checkup by IIR, 85% of lymphocytes before treatment): not found
CMV antigens in lymphocytes after treatment ([3]; Patient S. (cervical cancer), yearly study, 80% of lymphocytes before treatment): 20-30%
change of remission period versus control [4]: doubled
relapses ([5]; Patient B., 2 g 4 times a day, 7 days, three courses, three-year period): No relapses were seen
relapses ([5]; Patient, Valacyclovir combined with EBV and CMV immunoglobulins and Laferobion, four-year period): No relapses were seen
relapses ([6]; 2 g 4 times a day, 7 days, three courses, then radiological treatment, three-year period): No relapses were seen
metastasis ([6]; during the observation time): no metastasis
relapses [7]: No relapses were seen
change of remission period versus control [8]: quintupled
relapses [9]: No relapses were seen
EBV antigens in lymphocytes after treatment [10]: 10-15%

Nc1nc(O)c2ncn(COC(CO)CO)c2n1 [Ganciclovir]
sensitivity to the action of antitumor drugs [11]: fully restored

Nc1nc2c(ncn2COCCO)c(=O)[nH]1 [Acyclovir]
long-term remission of the illness ([2]; less than 0.5 g 2 times a day in injected form): does not provide long-term remission
